Read-outs that look alike come from different tables or passages of the source.
How the values were obtained:
5-HT1A receptors = molecular target: T1, 5-HT1A receptors (Rattus norvegicus, UniProt P19327); experiment: PET 5-HT1A receptor occupancy, dose-response study ([11C]WAY-100635, Emax model); format: in vivo, Sprague-Dawley rat
T1 construct: occupancy of 5-HT1A receptors in living Sprague-Dawley rat brains; from tissue; host or cells: living Sprague-Dawley rat brain (medial prefrontal cortex, dorsal raphe nucleus), in vivo PET
T1 sequence (P19327 1-422): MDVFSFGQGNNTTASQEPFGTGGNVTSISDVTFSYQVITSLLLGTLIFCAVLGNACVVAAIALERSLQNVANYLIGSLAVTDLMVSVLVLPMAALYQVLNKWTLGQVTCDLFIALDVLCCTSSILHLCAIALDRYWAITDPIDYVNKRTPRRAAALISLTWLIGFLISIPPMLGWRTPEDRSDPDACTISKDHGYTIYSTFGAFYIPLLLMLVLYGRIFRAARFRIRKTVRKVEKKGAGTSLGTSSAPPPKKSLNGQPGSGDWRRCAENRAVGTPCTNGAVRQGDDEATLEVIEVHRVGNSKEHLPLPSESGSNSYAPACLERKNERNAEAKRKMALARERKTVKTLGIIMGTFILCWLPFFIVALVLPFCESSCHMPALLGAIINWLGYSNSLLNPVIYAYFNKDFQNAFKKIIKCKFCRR
Procedure: All PET scans for rats were performed with a small animal-dedicated microPET FOCUS 220 system (Siemens Medical Solutions USA, Knoxville, TN, USA), which yields a 25.8 cm (transaxial) × 7.6 cm (axial) field of view (FOV) and a spatial resolution of 1.3 mm full width at half maximum at the center of FOV [8]. The rats were anesthetized with 1.5-2% isoflurane in air (2 L/min flow rate). Their body temperature was controlled using homeothermic controller and plate with a rectal probe, and their heart rates and arterial oxygen saturations were continuously measured by a pulse oximeter (CANL-425SVA; Med Associates, St. Albans, VT, USA). We also monitored respiration rates of these animals with a custom-made monitoring system (Nagano Electronics, Hitachinaka, Japan). A 20-min transmission scan for attenuation correction was performed using a spiraling ^68Ge-^68Ga point source. Subsequently, list-mode scans were carried out for 90 min. All list-mode data were sorted and Fourier rebinned into two-dimensional sinograms (frames: 4 × 1, 8 × 2, and 14 × 5 min). Images were thereafter reconstructed using two-dimensional filtered back-projection with a 0.5-mm Hanning filter. [^11C]-WAY-100635 was injected via the tail vein as a single bolus at the start of emission scanning. The injected dose of the radiotracer was 85.3 ± 28.6 MBq/rat (mean ± SD).
Anatomical regions of interest (ROIs) were placed on the medial prefrontal cortex (MPFC) and dorsal raphe nucleus (DRN) using PMOD® image software (PMOD Group, Zurich, Switzerland) with reference to the MRI template. Radioligand binding was examined by calculating the binding potential (BP ND; ratio at equilibrium of specifically-bound radioligand to that of nondisplaceable radioligand in tissue) based on a simplified reference tissue model (SRTM) using the cerebellar time-radioactivity curve as reference.
Occupancy of 5-HT1A receptors by E2110 was calculated using the following equation:
RO(%)=BPND,baseline−BPND,drug/BPND,baseline×100 (2)
where BP ND, baseline and BP ND, drug are estimated BP ND at baseline and following drug administration, respectively.
To examine the dose-RO relationship at a single time point, four male SD rats, which had undergone a baseline PET imaging in advance, were scanned with PET at 4 hours after being pretreated with 4 oral doses (0.3, 1, 3, 10 mg/kg) of E2110. In this assay, approximately 250 µL of blood samples were collected from the tail vein upon initiation of the scan for quantification of plasma concentration of E2110. We further examined RO at different time points after the drug administration by conducting PET scans of four male SD rats at 2, 4, 6 or 8 hours after pretreatment with a single oral dose of 1 mg/kg E2110. In addition to this series of PET assays for male rats, pilot PET scans for female rats (n = 3) were carried out at baseline and 4 hours after oral administration of 0.1 mg/kg E2110 to examine whether relationships between plasma concentration of E2110 and RO by this drug in the brain are consistent between two genders. In all experiments, scans for the same individual receiving E2110 were conducted more than 1 week apart.
As described in previous studies on 5-HT1A receptor antagonists the relationship between RO and plasma drug concentration at equilibrium can be described according to the law of mass action by the curvilinear function, based on the assumption that the free brain concentration is equal to free plasma concentration and the free fraction in plasma is not concentration-dependent:
RO(%)=ROmax/Kdapp+CpCp (3)
where ROmax is the maximum occupancy that can be induced by E2110, Kd ^app the apparent equilibrium constant, and Cp the plasma concentration of E2110. This model is analogous to the Emax model:
where Emax (ROmax) is the maximum effect (maximum RO) and EC50 (= Kd) is the E2110 plasma concentration required to produce 50% of Emax. […]

micturition interval = experiment: Superior colliculus lesion (SCL) model, cystometry; format: in vivo, female SD rats
Procedure: For lesioning of the brain to stimulate the micturition reflex, anesthesia was induced in female SD rats with 4% halothane and an N2O/O2 (2:1) gas mixture, it was maintained with 2% halothane, and each animal was mounted onto a stereotaxic apparatus. […] Catheter implantations and cystometric investigations were performed with the same methodologies as in the 5-HT1A receptor agonist-induced model. E2110 (0.1, 0.3 or 1 mg/kg) or vehicle was administered to four groups of eight conscious rats orally. The three micturition intervals were obtained and drug-induced changes in the micturition intervals were evaluated. In this assay, the post-administration micturition interval was defined as the average of the micturition intervals over an observation period between 0.5 and 1 hour after administration.
Data are expressed as mean ± standard error of mean (S.E.M). In the pharmacological study, the statistical significance of differences between the vehicle- and E2110-treated groups was tested using one-way analysis of variance (ANOVA) followed by Dunnett’s multiple comparison test. A probability (p) value of <0.05 (two-sided) was considered statistically significant. All statistical analyses were performed using the SAS software package version 8.1 or 8.2 (SAS Institute Japan Ltd., Tokyo, Japan).

How did the “5-HT1A RO at high doses” value (5-HT1A receptors; 3 and 10 mg/kg oral, 4 h, both ROIs (MPFC, DRN)) turn out when `CNC(=O)c1ccc2ccn(C3CCN(CCc4c(OC)ccc5c4OC(C)(C)CC5=O)CC3)c2c1.O=C(O)/C=C/C(=O)O` [E2110, 1-{1-[2-(7-Methoxy-2,2-dimethyl-4-oxochroman-8-yl)ethyl]piperidine-4-yl}-N-methyl-1H-indole-6-carboxamide fumarate] was run?
The value was “full occupancy”.

What about the EC50 (5-HT1A receptors; DRN, dose-response study, 4 h after oral 0.3-10 mg/kg, male SD rats, Emax model, read-out: EC50 (plasma concentration required for 50% 5-HT1A RO) (converted)) of the same compound?
Its EC50 is 5.4 nM.

What about the EC50 (5-HT1A receptors; DRN, dose-response study, Emax model, read-out: EC50 (plasma concentration required for 50% 5-HT1A RO) (converted)) of the same compound?
The EC50 was 4.36 nM.

And the EC50 (5-HT1A receptors; DRN, dose-response study, EC50 x unbound fraction in plasma, read-out: free concentration-based EC50 for 5-HT1A RO (converted))?
Its EC50 is 0.32 nM.

And the EC50 (5-HT1A receptors; DRN, dose-response study, read-out: free concentration-based EC50 for 5-HT1A RO (converted))?
The EC50 was 0.264 nM.

What about the EC50 (5-HT1A receptors; DRN, free CNS concentration assumed one-tenth of free plasma, read-out: in vivo EC50 corrected for the difference in free drug concentrations between plasma and CNS) of the same compound?
Its EC50 is 0.032 nM.

What about the “free concentration-based EC50 relative to in vitro Ki” value (5-HT1A receptors; MPFC and DRN, dose-response study) of the same compound?
Its value is “approximately 10 fold”.

What about the EC50 (5-HT1A receptors; MPFC, dose-response study, 4 h after oral 0.3-10 mg/kg, male SD rats, Emax model, read-out: EC50 (plasma concentration required for 50% 5-HT1A RO) (converted)) of the same compound?
The EC50 was 7.51 nM.

What about the EC50 (5-HT1A receptors; MPFC, dose-response study, Emax model, read-out: EC50 (plasma concentration required for 50% 5-HT1A RO) (converted)) of the same compound?
The EC50 was 6.08 nM.

And the EC50 (5-HT1A receptors; MPFC, dose-response study, EC50 x unbound fraction in plasma, read-out: free concentration-based EC50 for 5-HT1A RO (converted))?
The EC50 was 0.45 nM.

What about the EC50 (5-HT1A receptors; MPFC, dose-response study, read-out: free concentration-based EC50 for 5-HT1A RO (converted)) of the same compound?
The EC50 was 0.363 nM.

And the EC50 (5-HT1A receptors; MPFC, free CNS concentration assumed one-tenth of free plasma, read-out: in vivo EC50 corrected for the difference in free drug concentrations between plasma and CNS)?
The EC50 was 0.045 nM.

And the “5-HT1A RO, dose dependence” value (5-HT1A receptors; single oral doses of 0.3, 1, 3, and 10 mg/kg, each region)?
Its value is “dose-dependently induced 5-HT1A RO”.

What about the “minimum dose exerting overt therapeutic effects on the micturition reflex” value (micturition interval; SCL model, oral) of the same compound?
Its value is 0.3 mg/kg.

What about the “effect on micturition interval” value (micturition interval; oral 0.3-1 mg/kg, SCL female SD rats, 0.5-1 hour after administration) of the same compound?
The value was “significantly (p < 0.05) prolonged the micturition intervals”.

Reference: paper PMC3781034, “A Small-Animal Pharmacokinetic/Pharmacodynamic PET Study of Central Serotonin 1A Receptor Occupancy by a Potential Therapeutic Agent for Overactive Bladder” (PLoS ONE, 2013)
